Assay results from patent US20040102423A1, “Spironolactone and angiotensin II antagonist combination therapy for treatment of congestive heart failure” (G.D. Searle & Co., priority 1995, published 2004).

Key:
[1] = molecular target: angiotensin II AT1 receptor; test: Assay A: Angiotensin II binding activity, rat uterine membrane preparation, 125I-AII displacement
rabbit aortic rings = test: Assay B: In vitro vascular smooth muscle response for AII (antagonist activity, pA2); type: cell-based; details: Oryctolagus cuniculus, two values in a cell = two determinations
Summary of the method: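 Endothelium-denuded thoracic aortic rings from male New Zealand white rabbits, in oxygenated Krebs at 37° C. under ~1 g tension, gave isometric AII contraction curves (3×10^−10 to 1×10^−5 M).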

pressor response to AII = test: Assay C: In vivo intragastric pressor assay response for AII antagonists; design: species or system Sprague-Dawley rats; details: in vivo pressor response, 3 mg/kg intragastrically; for inhibition in vivo at 3 mg/kg: Rattus norvegicus, po
myocardial fibrosis = details: animal models; cited from earlier work

Structure (SMILES)	IC50 [1] [nM]	Kb (rabbit aortic rings) [nM]	inhibition in vivo at 3 mg/kg (pressor response to AII) [%]	Assay C Duration (pressor response to AII) [min]	prevention of myocardial fibrosis (myocardial fibrosis)
CCCCc1cn([C@H]2[C@H](C)CCC[C@@H]2C)c(=O)n1Cc1ccc(-c2ccccc2-c2nnn[nH]2)nc1 [Compound 247]	9.4	5.5	20	180	–
CCCCc1cn(C2CCCCC2(C)C)c(=O)n1Cc1ccc(-c2ccccc2-c2nnn[nH]2)nc1 (stereo not shown) [Compound 248]	20	20.9	10	–	–
CCCCc1nc(CCCC)n(Cc2ccc(-c3cnccc3-c3nnn[nH]3)cc2)n1 [Compound 255]	12	24.5	20	>180	–
CCCCc1nc(-c2ccccc2C)n(Cc2ccc(-c3ccccc3-c3nnn[nH]3)nc2)n1 [Compound 273]	9.8	2.95	25	>180	–
CCCCc1nc(-c2ccccc2C(C)C)nn1Cc1ccc(-c2ccccc2-c2nnn[nH]2)nc1 [Compound 274]	13	0.871	35	>180	–
CCCCc1nc(-c2ccccc2C(C)C)n(Cc2ccc(-c3ccccc3-c3nnn[nH]3)nc2)n1 [Compound 275]	6.3	0.851	40	>180	–
CCCCc1nc(-c2ccccc2OC)nn1Cc1ccc(-c2ccccc2-c2nnn[nH]2)nc1 [Compound 276]	33	1.95	< 20	–	–
CCCCc1nc(-c2ccccc2Cl)nn1Cc1ccc(-c2ccccc2-c2nnn[nH]2)nc1 [Compound 278]	30	3.24	50	>180	–
CC(=O)S[C@@H]1CC2=CC(=O)CC[C@]2(C)[C@H]2CC[C@@]3(C)[C@@H](CC[C@@]34CCC(=O)O4)[C@H]12 [spironolactone, 17-hydroxy-7α-mercapto-3-oxo-17α-pregn-4-ene-21-carboxylic acid γ-lactone acetate]	–	–	–	–	prevents myocardial fibrosis
